Tested on: patients with hyposmia
Experiment: Subjective overall change in smell function; open trial of oral theophylline
Format: in vivo, human
Protocol: Independently, patients were also required to grade their ability to smell daily on a scale from 0-100, with 0 reflecting no overall smell function over a 24 hour period, 100 reflecting normal overall smell function over this period and numbers from 0-100 reflecting their estimation of their overall ability to smell odors over this period.
After determination of hyposmia, patients were treated in an open label, fixed design, controlled open trial. Patients were given an oral extended release theophylline in divided daily doses taken in the middle of breakfast and lunch. All patients were initially given 200 mg of theophylline; changes in this dose were made based upon subjective responses to therapy. If at a subsequent return visit, patients reported ≥5% subjective improvement in overall smell function, they continued on this same dose of theophylline and were reevaluated after four to six months of continued treatment. Results from any subsequent return from these improved patients were not included in any subsequent data report. All subsequent comparisons between treated and untreated patients were made only between those patients continuing in the study compared to their own measurements obtained in the untreated state. If patients reported <5% subjective improvement, their theophylline dose was increased by 200 mg daily and they were scheduled for retesting at the study site after two to four months at this new dosage. For patients that reported <5% improvement, this sequence continued until patients reached 800 mg of theophylline, at which time the study was considered completed.
Patients returned for reevaluation after two to four months of treatment. Measurements of blood serum theophylline were measured by a fluorescence polarization assay (Abbott, Chicago, Ill.). At this time, subjective changes in smell function were measured independently (compared to patient's memory of previous normal smell function monitored by use of the patients' daily measurements) using the scale from −100−0-+100 previously described. After independently recording their subjective responses, smell function was measured for all four odors with DT, RT, ME and H determined without recourse to prior measurements.
Subjective overall changes in smell acuity were reported by telephone and by FAX or email at two—four month intervals after treatment was initiated using the standardized form in which they measured daily changes in smell acuity using the −100−0-+100 scale as noted above. Using the same criteria noted above, if at their initial two—four month call-in they reported improvement in smell acuity of ≥5%, they continued at 200 mg and returned to the study site at four—six months on this treatment dose. If they reported improvement in smell acuity of <5% their dose of theophylline was increased to 400 mg for an additional two—four months and they then called the study site at the end of this period.

Structure (SMILES): Cn1c(=O)c2[nH]cnc2n(C)c1=O [theophylline]
- patients improved ≥5% (subjective smell function) (oral theophylline 200 mg daily, two-six months, 199 returning patients): 17.1%
- improved patients who considered their smell function had returned to normal (oral theophylline 200 mg daily, of 34 improved patients): 26.5%
- non-returning patients reporting >5% improvement (oral theophylline 200 mg, 15 non-returning patients): 46.7%
- improved non-returning patients reporting a return to normal (oral theophylline 200 mg, non-returning patients): 14.3%
- patients improved ≥5% (subjective smell function) (oral theophylline 400 mg daily, two-six months, 120 patients): 29.2%
- improved patients who considered their smell function had returned to normal (oral theophylline 400 mg daily, of 35 improved patients): 8.6%
- patients improved ≥5% (subjective smell function) (oral theophylline 600 mg daily, two-12 months, 160 patients): 41.2%
- patients who considered their smell function had returned to normal (oral theophylline 600 mg daily, 17 patients): 10.6%
- patients improved ≥5% (subjective smell function) (oral theophylline 800 mg daily, two-12 months, 28 patients): 53.6%
- patients who considered their smell function had returned to normal (oral theophylline 800 mg daily, three patients): 33%
- improved patients reporting smell function returned to normal (oral theophylline 200-600 mg, Type III hyposmia): 60%
- patients reporting >5% improvement (oral theophylline 200-600 mg, eight patients with Type III hyposmia): 62.5%
- patients reporting >5% improvement (oral theophylline 200-800 mg, 96 patients with Type I hyposmia): 33.3%
- patients reporting >5% improvement (oral theophylline 200-800 mg, 208 patients with Type II hyposmia): 62%
- improved patients reporting smell function returned to normal (oral theophylline 200-800 mg, Type I hyposmia): 15.6%
- improved patients reporting smell function returned to normal (oral theophylline 200-800 mg, Type II hyposmia): 20.2%
- responsive patients who considered smell function returned to normal levels (oral theophylline, 34 of 157): 21.7%
- patients subjectively responsive to treatment (oral theophylline, 157 of the 312 patients): 50.3%
- all patients in the study who considered smell function returned to normal (oral theophylline, all 312 patients): 10.9%

Reference: US20190030036A1, “PHOSPHODIESTERASE INHIBITOR TREATMENT” (Cyrano Therapeutics, Inc., priority 2013, published 2019)
